Experimental data published in patent US8187572B2, “Diabetogenic rat model” (Hoffmann-La Roche Inc., priority 2005, dated 2012).

Tests used:
Assay type in all cases: in vivo, rat
[1] = Body weight, food intake and water intake of Pioglitazone-treated ZDF rats; conditions: ZDF rats group_low, group_mild and group_full; chronic treatment (7 weeks), 10 mg/kg/d food-admix
Experimental: ZDF and ZL rats were ordered at the age of 5 W. After arrival and following 1 week of adaptation, 1 ml of blood was collected retro-orbitally after a short narcosis (isoflurane) in 6 W-old rats. […] A group of 10 ZL rats was formed and followed as a control group along the study duration (FIG. 3). Three groups of ZDF rats receive either vehicle (untreated) or Pioglitazone (treated) as food Admix. In each untreated/treated group of ZDF rats, one is fed a high fat diet during 11 weeks (group_full), during 4 weeks (group_mild) or during 2 weeks (group_low). Treatment was administered orally and prepared as food-admix. This mode of administration was preferred over oral gavage to reduce stress to the animals, avoid dosing errors and minimize handling. Pioglitazone (sufficient for 90 kg food) was dissolved in 18 liters of water. For the three treatment groups of 10 rats each, 6 liters of solution was combined with 30 kg of the diabetogenic diet (KLIBA 2437 with 7% of fat) or 12 liters were mixed with 60 Kg of the chow diet (Kliba 3436). The food was carefully dried at a temperature not exceeding 40° C. and then pelleted. […] The graphs and tables present the data according to expected daily dose. […] Body weight and food consumption were recorded with an on-line data acquisition system ([…]) using electronic balances.

[2] = system: ZDF rats; assay: Oral glucose tolerance test (OGTT) with fasting parameters and HOMA in Pioglitazone-treated ZDF rats; conditions: for HOMA (insulin resistance index) / fasting insulin levels: after 6 weeks of treatment
Experimental: ZDF and ZL rats were ordered at the age of 5 W. After arrival and following 1 week of adaptation, 1 ml of blood was collected retro-orbitally after a short narcosis (isoflurane) in 6 W-old rats. […] A group of 10 ZL rats was formed and followed as a control group along the study duration (FIG. 3). Three groups of ZDF rats receive either vehicle (untreated) or Pioglitazone (treated) as food Admix. In each untreated/treated group of ZDF rats, one is fed a high fat diet during 11 weeks (group_full), during 4 weeks (group_mild) or during 2 weeks (group_low). Treatment was administered orally and prepared as food-admix. This mode of administration was preferred over oral gavage to reduce stress to the animals, avoid dosing errors and minimize handling. Pioglitazone (sufficient for 90 kg food) was dissolved in 18 liters of water. For the three treatment groups of 10 rats each, 6 liters of solution was combined with 30 kg of the diabetogenic diet (KLIBA 2437 with 7% of fat) or 12 liters were mixed with 60 Kg of the chow diet (Kliba 3436). The food was carefully dried at a temperature not exceeding 40° C. and then pelleted. […] The graphs and tables present the data according to expected daily dose. […] Blood was then collected in conscious animals (tail vein) for baseline glucose and insulin measurements. […] Studying the evolution of blood glucose concentration along time after a load of glucose will give information about the ability of the organism to use glucose. Using the trapezoidal rule, glucose tolerance was calculated as area under the curve (AUC) of glucose concentration during 120 min and the change from baseline was calculated (delta AUC). HOMA index is also assessed during the OGTT by considering fasting insulin and fasting blood glucose (FBG) levels. HOMA: [FBG (mM)*(Fasting Insulin (μU))/22.5]. HOMA-index translates peripheral insulin resistance. Measurement of insulin was performed using Mercodia Rat Insulin ELISA kit.

[3] = system: ZDF rats; assay: Intervention treatment with Pioglitazone in ZDF rats: post-prandial blood and plasma parameters; conditions: for average plasma TG level: at the end of treatment
Experimental: ZDF and ZL rats were ordered at the age of 5 W. After arrival and following 1 week of adaptation, 1 ml of blood was collected retro-orbitally after a short narcosis (isoflurane) in 6 W-old rats. […] A group of 10 ZL rats was formed and followed as a control group along the study duration (FIG. 3). Three groups of ZDF rats receive either vehicle (untreated) or Pioglitazone (treated) as food Admix. In each untreated/treated group of ZDF rats, one is fed a high fat diet during 11 weeks (group_full), during 4 weeks (group_mild) or during 2 weeks (group_low). Treatment was administered orally and prepared as food-admix. This mode of administration was preferred over oral gavage to reduce stress to the animals, avoid dosing errors and minimize handling. Pioglitazone (sufficient for 90 kg food) was dissolved in 18 liters of water. For the three treatment groups of 10 rats each, 6 liters of solution was combined with 30 kg of the diabetogenic diet (KLIBA 2437 with 7% of fat) or 12 liters were mixed with 60 Kg of the chow diet (Kliba 3436). The food was carefully dried at a temperature not exceeding 40° C. and then pelleted. […] The graphs and tables present the data according to expected daily dose. […] Blood sampling was always performed in the morning (9-11 am) 2-to-5 hours after feeding session and 2 h after last oral dosing (food was removed at 7:00 am). Blood (≈200 μl) was harvested retro-orbitally from slightly anesthetized rats (isoflurane) into tubes containing EDTA and kept on ice bed until centrifugation (6000 RPM for 20 minutes at 4° C.). […] Main plasma biochemical parameters (glucose(Gluco-quant, e.g. […] Quantification of HbA1c (%) was performed in whole blood, using an immuno-turbidimetric assay (Tina-quant, e.g. 11822039 from Roche Molecular Diagnostics). Glycosylated haemoglobin (HbA1c) is formed by the non-enzymatic covalent attachment of glucose to normal haemoglobin (HbA). […] HbA1c is a predictor of diabetic complications and interventions that reduce HbA1c correspondingly reduce the risk of complications (UKPDS, 1998). […] Commercially available ELISA kits (LINCO®) were used to quantify plasma concentration of insulin and adiponectin. Adiponectin is an adipokine which is […] and fasting plasma insulin concentration (Goldstein, 2002). Adiponectin plasma concentrations are decreased in […] patients and despite the fact that it is produced by adipocytes, as an individual becomes more obese, the adiponectine is decreased and insulin resistance increases ([…] et al., 1999).

Question: Which results are given for CCc1ccc(CCOc2ccc(CC3SC(=O)NC3=O)cc2)nc1.Cl (racemic) [Pioglitazone, (±)-5-[[4-[2-(5-ethyl-2-pyridinyl)ethoxy]phenyl]methyl]-2,4-]?
Answer: increase in BW versus vehicle [1]: ≈ 30%; improvement of glucose tolerance (AUC) compared to vehicle ([2]; group_full, OGTT after 6 weeks of treatment): 31%; HOMA (insulin resistance index) ([2]; group_full): 14.1±2.7; fasting insulin levels ([2]; group_full): 2.0 ± 0.4 ng/mL; FBG ([2]; group_full, after 7 weeks of treatment): 6.7 ± 0.9 mM; AUC reduced compared to vehicle ([2]; group_low, OGTT after 6 weeks of treatment): 36%; glucose excursion AUC ([2]; group_low, OGTT after 6 weeks of treatment, ZL 779±15): 1000±48; fasting insulin levels ([2]; group_low): 1.7 ng/mL; HOMA (insulin resistance index) ([2]; group_low, ZL 2.0±0.1): 9.4±0.8; FBG ([2]; group_low, vehicle 6.9±0.4, ZL 4.3±0.0): 5.1 ± 0.1 mM; improvement of glucose tolerance (AUC) compared to vehicle ([2]; group_mild, OGTT after 6 weeks of treatment): 29%; HOMA (insulin resistance index) ([2]; group_mild): 10.9±1.9; fasting insulin levels ([2]; group_mild): 1.6 ± 0.3 ng/mL; FBG ([2]; group_mild, after 7 weeks of treatment): 6.6 ± 1.3 mM; plasma total cholesterol levels ([3]; any of the treatment groups): did not change; reduction of plasma triglyceride levels compared to vehicle ([3]; group_full (fully diabetic ZDF rats)): 69.5±5.2%; HbA1C ([3]; group_full ZDF rats, 10 mg/kg): significant reduction; blood glucose levels ([3]; group_full ZDF rats, apparent after 2 weeks, partially maintained, 10 mg/kg): strongly reduced; hyperinsulinemia ([3]; group_full ZDF rats, at the beginning of treatment, effect gone after 5 weeks): significantly reduced; average plasma TG level ([3]; group_full): 2.8 ± 0.5 mM; plasma TG levels ([3]; group_full, compared with ZL 1.1±0.1): 2.9 ± 0.6 mM; plasma NEFA levels ([3]; group_full, data not shown): moderate improvement; hypertriglyceridemia ([3]; group_low): almost completely and immediately normalized; development of hyperglycaemia and increase in HbA1c ([3]; group_low (moderately diabetic ZDF rats), values similar to untreated ZL rats): fully prevented; average plasma TG level ([3]; group_low): 1.6 ± 0.1 mM; insulin levels ([3]; group_low, end of the 7 week treatment period, ZL 0.8±0.1): 2.1 ± 0.2 ng/mL; hyperinsulinemia ([3]; group_low, starting at week 2 of treatment, maintained until end of study): strongly reversed
